Consider ten molecules from the Kinase Knowledgebase extract (Sharma et al. 2016).

Each structure is given as a SMILES string.

Among the targets are PIK3CD (Human) (UniProt O00329); PIK3CB (Human) (UniProt P42338); PIK3CA (human) (UniProt P42336); PIK3CG (human) (UniProt P48736).
Holding throughout (test): Enzyme Assay

PIK3CA (human), sequence (P42336 whole entry, looked up): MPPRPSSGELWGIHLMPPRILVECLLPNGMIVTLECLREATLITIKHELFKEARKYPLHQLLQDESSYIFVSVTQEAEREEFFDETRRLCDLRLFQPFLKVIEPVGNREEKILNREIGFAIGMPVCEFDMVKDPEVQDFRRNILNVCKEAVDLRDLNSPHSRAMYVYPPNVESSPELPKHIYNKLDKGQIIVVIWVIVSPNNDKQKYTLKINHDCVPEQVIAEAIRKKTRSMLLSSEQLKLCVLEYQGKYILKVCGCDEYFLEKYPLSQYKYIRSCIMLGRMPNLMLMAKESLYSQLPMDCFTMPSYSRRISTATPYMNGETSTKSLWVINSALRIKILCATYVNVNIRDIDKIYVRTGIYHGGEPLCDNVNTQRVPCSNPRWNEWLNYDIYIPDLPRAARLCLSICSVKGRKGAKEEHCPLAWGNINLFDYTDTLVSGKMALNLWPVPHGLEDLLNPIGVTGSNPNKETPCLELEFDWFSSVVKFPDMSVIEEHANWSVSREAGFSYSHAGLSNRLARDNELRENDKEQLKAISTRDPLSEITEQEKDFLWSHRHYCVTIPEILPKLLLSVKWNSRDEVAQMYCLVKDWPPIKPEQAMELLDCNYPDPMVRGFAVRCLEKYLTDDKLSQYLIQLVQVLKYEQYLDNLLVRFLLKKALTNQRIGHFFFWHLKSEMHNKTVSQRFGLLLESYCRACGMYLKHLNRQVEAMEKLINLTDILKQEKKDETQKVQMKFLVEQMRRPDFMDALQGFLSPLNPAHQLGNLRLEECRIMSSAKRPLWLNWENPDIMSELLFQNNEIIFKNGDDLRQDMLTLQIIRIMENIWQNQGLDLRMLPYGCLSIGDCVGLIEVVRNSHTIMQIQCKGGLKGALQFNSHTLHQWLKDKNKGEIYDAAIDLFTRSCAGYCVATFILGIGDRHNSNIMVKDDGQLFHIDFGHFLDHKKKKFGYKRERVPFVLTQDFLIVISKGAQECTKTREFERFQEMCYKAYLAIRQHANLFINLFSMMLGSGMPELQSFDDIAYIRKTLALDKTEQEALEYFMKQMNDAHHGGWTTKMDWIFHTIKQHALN
PIK3CD (Human), sequence (O00329 whole entry, looked up): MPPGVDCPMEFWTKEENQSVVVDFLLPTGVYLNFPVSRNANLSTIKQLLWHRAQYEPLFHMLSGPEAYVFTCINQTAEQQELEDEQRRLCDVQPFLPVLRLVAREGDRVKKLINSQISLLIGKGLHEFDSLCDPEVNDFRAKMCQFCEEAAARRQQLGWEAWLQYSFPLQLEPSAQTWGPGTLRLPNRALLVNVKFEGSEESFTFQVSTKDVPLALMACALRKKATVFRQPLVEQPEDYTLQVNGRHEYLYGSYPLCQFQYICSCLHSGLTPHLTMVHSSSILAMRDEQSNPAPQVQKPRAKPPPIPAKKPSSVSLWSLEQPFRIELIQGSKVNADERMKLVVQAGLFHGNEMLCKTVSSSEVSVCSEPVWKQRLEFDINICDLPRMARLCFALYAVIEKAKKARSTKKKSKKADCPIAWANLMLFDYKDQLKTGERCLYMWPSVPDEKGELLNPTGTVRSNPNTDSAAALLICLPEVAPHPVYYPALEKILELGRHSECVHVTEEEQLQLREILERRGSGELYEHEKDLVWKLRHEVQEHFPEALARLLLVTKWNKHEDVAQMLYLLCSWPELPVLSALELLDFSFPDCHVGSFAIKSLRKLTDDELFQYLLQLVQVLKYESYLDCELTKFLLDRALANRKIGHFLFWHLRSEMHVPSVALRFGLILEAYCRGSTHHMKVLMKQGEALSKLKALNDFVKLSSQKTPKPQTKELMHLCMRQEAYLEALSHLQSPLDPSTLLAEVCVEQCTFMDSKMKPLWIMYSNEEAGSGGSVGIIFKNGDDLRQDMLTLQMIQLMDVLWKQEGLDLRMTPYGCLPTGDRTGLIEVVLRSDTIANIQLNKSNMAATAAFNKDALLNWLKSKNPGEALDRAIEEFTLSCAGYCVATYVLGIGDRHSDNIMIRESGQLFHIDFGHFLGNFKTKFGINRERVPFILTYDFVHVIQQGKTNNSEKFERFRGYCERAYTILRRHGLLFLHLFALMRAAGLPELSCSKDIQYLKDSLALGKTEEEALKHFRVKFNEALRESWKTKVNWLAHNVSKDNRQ
PIK3CB (Human), sequence (P42338 whole entry, looked up): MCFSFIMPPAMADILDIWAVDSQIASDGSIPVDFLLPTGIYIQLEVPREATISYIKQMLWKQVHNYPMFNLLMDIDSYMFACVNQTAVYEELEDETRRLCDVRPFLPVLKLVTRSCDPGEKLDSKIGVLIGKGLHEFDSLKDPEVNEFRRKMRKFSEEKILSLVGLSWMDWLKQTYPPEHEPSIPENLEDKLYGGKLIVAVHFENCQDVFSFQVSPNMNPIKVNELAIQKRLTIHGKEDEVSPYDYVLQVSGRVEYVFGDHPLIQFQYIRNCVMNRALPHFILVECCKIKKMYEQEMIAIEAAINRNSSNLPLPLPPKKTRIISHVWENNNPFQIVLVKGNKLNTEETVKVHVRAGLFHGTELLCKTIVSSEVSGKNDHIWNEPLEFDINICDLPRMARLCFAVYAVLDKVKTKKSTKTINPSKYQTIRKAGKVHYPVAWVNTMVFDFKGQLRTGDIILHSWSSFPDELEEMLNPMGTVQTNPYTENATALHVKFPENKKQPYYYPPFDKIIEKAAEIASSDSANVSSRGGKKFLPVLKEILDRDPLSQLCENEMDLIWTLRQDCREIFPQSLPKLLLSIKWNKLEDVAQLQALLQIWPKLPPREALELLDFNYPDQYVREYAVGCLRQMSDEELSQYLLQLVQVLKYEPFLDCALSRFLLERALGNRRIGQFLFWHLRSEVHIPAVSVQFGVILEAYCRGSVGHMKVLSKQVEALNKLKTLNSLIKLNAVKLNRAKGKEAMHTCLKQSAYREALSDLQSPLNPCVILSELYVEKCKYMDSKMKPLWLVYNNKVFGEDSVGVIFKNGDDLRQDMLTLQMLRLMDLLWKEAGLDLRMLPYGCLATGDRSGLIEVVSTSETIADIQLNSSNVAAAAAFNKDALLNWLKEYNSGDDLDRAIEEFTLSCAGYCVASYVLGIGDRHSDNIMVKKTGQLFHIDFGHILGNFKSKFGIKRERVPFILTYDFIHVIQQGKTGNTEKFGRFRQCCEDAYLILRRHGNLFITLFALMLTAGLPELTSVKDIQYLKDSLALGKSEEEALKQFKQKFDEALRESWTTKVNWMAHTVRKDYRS
PIK3CG (human), sequence (P48736 whole entry, looked up): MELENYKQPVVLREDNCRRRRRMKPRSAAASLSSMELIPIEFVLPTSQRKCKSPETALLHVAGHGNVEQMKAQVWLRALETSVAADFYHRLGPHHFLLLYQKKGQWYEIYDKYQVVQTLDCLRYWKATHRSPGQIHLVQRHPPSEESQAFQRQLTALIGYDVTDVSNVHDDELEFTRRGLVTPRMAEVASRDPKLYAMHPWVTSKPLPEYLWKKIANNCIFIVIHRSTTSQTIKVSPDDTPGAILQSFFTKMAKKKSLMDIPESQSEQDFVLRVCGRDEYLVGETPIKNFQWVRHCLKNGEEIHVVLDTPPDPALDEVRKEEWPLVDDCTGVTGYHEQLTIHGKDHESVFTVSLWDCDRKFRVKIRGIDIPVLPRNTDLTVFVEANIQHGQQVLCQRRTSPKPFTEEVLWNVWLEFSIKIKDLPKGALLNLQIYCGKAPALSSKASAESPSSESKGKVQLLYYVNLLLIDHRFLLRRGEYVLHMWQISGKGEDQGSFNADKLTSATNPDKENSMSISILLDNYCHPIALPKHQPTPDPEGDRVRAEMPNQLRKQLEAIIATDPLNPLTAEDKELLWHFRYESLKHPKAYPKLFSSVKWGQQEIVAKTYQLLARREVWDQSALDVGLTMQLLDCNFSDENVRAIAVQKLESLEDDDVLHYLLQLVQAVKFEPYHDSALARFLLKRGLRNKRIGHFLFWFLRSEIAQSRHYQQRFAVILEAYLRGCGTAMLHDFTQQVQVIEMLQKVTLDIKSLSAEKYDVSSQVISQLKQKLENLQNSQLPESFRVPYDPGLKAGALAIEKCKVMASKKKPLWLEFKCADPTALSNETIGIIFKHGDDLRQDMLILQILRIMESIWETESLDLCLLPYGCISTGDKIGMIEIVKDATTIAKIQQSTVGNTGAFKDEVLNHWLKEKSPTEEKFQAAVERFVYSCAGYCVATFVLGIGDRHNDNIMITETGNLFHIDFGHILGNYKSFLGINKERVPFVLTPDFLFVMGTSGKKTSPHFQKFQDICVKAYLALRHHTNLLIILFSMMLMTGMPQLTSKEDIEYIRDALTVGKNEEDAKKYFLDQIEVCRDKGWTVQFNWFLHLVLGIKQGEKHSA

For the molecule `CS(=O)(=O)N1CCN(Cc2cc3nc(-c4cnc(N)nc4)nc(N4CCOCC4)c3s2)CC1`, the IC50 against PIK3CD (Human) is 16 nM; against PIK3CB (Human), 12 nM.

In turn, `N#Cc1c(N2CCOCC2)sc(-c2nc[nH]n2)c1-c1ccc(Cl)cc1Cl` showed an IC50 against PIK3CA (human) of 0.35 nM.

Consider `CC(C)c1nc2ccccc2n1-c1nc(N2CCOCC2)c2nc(OC3CN(C4CCS(=O)(=O)CC4)C3)n(C)c2n1`, for which the inhibition constant (Ki) on PIK3CD (Human) came to 0.4 nM.

The molecule `O=C(c1ccccc1)c1ccc(N2CCOCC2)cc1O` had an IC50 against PIK3CB (Human) of 3700 nM.

Regarding `Cc1c(Cl)cccc1Cn1c(SCC(=O)O)nc(=O)c2sc(N3CCOCC3)nc21`, on PIK3CD (Human), the IC50 is 3 nM.

With `CN(C)CCN(C)C(=O)c1ccc(NC(=O)Nc2ccc(-c3nc(N4CCOCC4)c4ccn(CC(F)(F)F)c4n3)cc2)cc1`, the IC50 against PIK3CA (human) worked out at 2.4 nM.

For `Cc1c(OCCN2CCN(C)CC2)ccc2c(=O)nc(N3CCOCC3)oc12`, on PIK3CA (human), the IC50 was not below 100000 nM.

Take `CC1(C)CC(=O)c2sc(N3CCOc4ccccc43)nc2C1`: the IC50 against PIK3CG (human) was 610 nM; against PIK3CD (Human), 830 nM.

In turn, `CCOC(=O)c1ccc(-c2csc3c(=O)cc(N4CCOCC4)oc23)cc1` had an IC50 against PIK3CD (Human) of 12 nM.

As for `CN(C)CCCNC(=O)c1cn2cc(-c3cccc4[nH]ncc34)nc(N3CCOCC3)c2n1`, the IC50 against PIK3CA (human) is 35 nM.

Usually IC50 stands for the concentration that gives 50% inhibition. A low value points to greater potency in that assay. By Ki is commonly meant a dissociation constant, usually derived from enzyme kinetics or from competition with a known ligand. A high value points to weaker binding.
